Where two headings read alike, the source gives them in different places.
Key:
[1] = system: pFGFR4 in MDA-MB-453 cells; assay: FGFR4 signaling, pFGFR4 (MDA); Western blot (Method A), MSD (Method B), ELISA (Method C); format: cell-based; conditions: Homo sapiens, Method B (MSD) for signaling EC50 determination
Description: The MDA-MB-453 protein concentrations were determined by a BCA Assay (Pierce, Rockford, Ill.). A sample of 50-100 μg of each lysate was separated by a 4-12% gradient (SDS-PAGE (Invitrogen)), transferred to a nitrocellulose membrane (Biorad, Hercules, Calif.), and probed with specific antibodies. Phospho-protein signals were quantitated using Odyssey Infrared Imaging (Li-Cor Biosciences).
To assess phospho-FGFR signaling, the blots were probed with anti-Phospho-FGFR (Y653/Y654) and total anti-FGFR antibodies. The phospho-FGFR signal was normalized to total FGFR expression for each sample.

[2] = system: pFGFR4 in Huh7 cells; assay: FGFR4 signaling, pFGFR4 (Huh); MSD (Method B); format: cell-based; conditions: Homo sapiens
[3] = Huh-7, Huh7 cells, read-out: Signaling EC50 (nM) pFGFR4 (Huh)
[4] = Huh-7, read-out: Signaling EC50 (nM) pFGFR4 (Huh)

EC50 ([1]; MDA-MB-453 cells) [nM] | EC50 [2, 3] [nM] | Structure (SMILES) | further results
< 100 | < 100 | C=CC(=O)Nc1ccccc1Nc1ncc2c(n1)N(CC(F)F)C(=O)N(c1c(F)c(OC)cc(OC)c1F)C2 [Compound I-116] | 
501 to 999 | > 1000 | C=CC(=O)Nc1cc(C(=O)NC2CCN(C)CC2)ccc1Nc1ncc2c(n1)N(C)C(=O)N(c1cc(OC)cc(OC)c1)C2 [Compound I-151] | 
 | < 100 | C=CC(=O)NC1CN(c2ccn(C)n2)CC1Nc1ncc2c(n1)N(C)C(=O)N(c1c(Cl)c(OC)cc(OC)c1Cl)C2 (stereo not shown) [Compound I-204] | 
101 to 500 | 101 to 500 | C=CC(=O)N[C@H]1COCC[C@H]1Nc1ncc2c(n1)N(C)C(=O)N(c1c(Cl)c(OC)cc(OC)c1Cl)C2 [Compound I-140] | 
101 to 500 | 101 to 500 | C=CC(=O)NC1CCCCC1Nc1ncc2c(n1)N(CC(F)F)C(=O)N(c1c(F)c(OC)cc(OC)c1F)C2 (stereo not shown) [Compound I-115] | 
101 to 500 | 101 to 500 | C=CC(=O)N[C@H]1CCCC[C@H]1Nc1ncc2c(n1)N(C)C(=O)N(c1c(F)c(OC)cc(OC)c1F)C2 [Compound I-143] | 
 | < 100 | C=CC(=O)NC1COCC1Nc1ncc2c(n1)N(CC1CC1)C(=O)N(c1c(Cl)c(OC)cc(OC)c1Cl)C2 (stereo not shown) [Compound I-212] | 
< 100 | < 100 | C=CC(=O)Nc1ccccc1Nc1ncc2c(n1)N(CC1CC1)C(=O)N(c1cc(OC)cc(OC)c1)C2 [Compound I-98] | 
 | 101 to 500 | C=CC(=O)NC1COCC1Nc1ncc2c(n1)N(Cc1cc[nH]n1)C(=O)N(c1c(Cl)c(OC)cc(OC)c1Cl)C2 (stereo not shown) [Compound I-216] | 
< 100 | < 100 | C=CC(=O)Nc1ccccc1Nc1ncc2c(n1)N(CC1CC1)C(=O)N(c1cc(OC)cc(OC)c1Cl)C2 [Compound I-100] | 
501 to 999 | > 1000 | C=CC(=O)Nc1ccccc1Nc1ncc2c(n1)N(C1CCCNC1)C(=O)N(c1cc(OC)cc(OC)c1)C2 (stereo not shown) [Compound I-43] | 
< 100 | 101 to 500 | C=CC(=O)Nc1ccccc1Nc1ncc2c(n1)N(Cc1ccc(F)cc1)C(=O)N(c1c(Cl)c(OC)cc(OC)c1Cl)C2 [Compound I-25] | 
101 to 500 | 101 to 500 | C=CC(=O)NC1CC=CCC1Nc1ncc2c(n1)N(C)C(=O)N(c1c(Cl)c(OC)cc(OC)c1Cl)C2 (racemic) [Compound I-113] | 
 | 101 to 500 | C=CC(=O)NC1COCC1Nc1ncc2c(n1)N(Cc1cn[nH]c1)C(=O)N(c1c(Cl)c(OC)cc(OC)c1Cl)C2 (stereo not shown) [Compound I-214] | 
101 to 500 | 101 to 500 | C=CC(=O)Nc1cc(C)ccc1Nc1ncc2c(n1)N(C)C(=O)N(c1cc(OC)cc(OC)c1)C2 [Compound I-41] | 
 | < 100 | C=CC(=O)Nc1cc(OC)ccc1Nc1ncc2cc(-c3c(Cl)c(OC)cc(OC)c3Cl)c(=O)n(C)c2n1 [Compound I-242] | 
101 to 500 | < 100 | C=CC(=O)NC1CCCCC1Nc1ncc2c(n1)N(Cc1ccccc1)C(=O)N(c1c(Cl)c(OC)cc(OC)c1Cl)C2 (racemic) [Compound I-63] | 

EC50 ([1]; MDA-MB-453 cells) [nM] | EC50 [2, 3] [nM] | Structure (SMILES) | further results
101 to 500 | 101 to 500 | C=CC(=O)Nc1ccc(C(F)(F)F)cc1Nc1ncc2c(n1)N(C)C(=O)N(c1cc(OC)cc(OC)c1)C2 [Compound I-50] | 
 | < 100 | C=CC(=O)NC1COCC1Nc1ncc2c(n1)N(CC)C(=O)N(c1c(Cl)c(OC)cc(OC)c1Cl)C2 (stereo not shown) [Compound I-217] | 
 | 101 to 500 | C=CC(=O)NC1CCCCC1Nc1ncc2c(n1)N(Cc1cccc(NC(=O)CC)c1)C(=O)N(c1c(Cl)c(OC)cc(OC)c1Cl)C2 (racemic) [Compound I-8] | 
 | < 100 | C=CC(=O)NC1COCC1Nc1ncc2c(n1)N(Cc1cscn1)C(=O)N(c1c(Cl)c(OC)cc(OC)c1Cl)C2 (stereo not shown) [Compound I-210] | 
 | 501 to 999 | C=CC(=O)N[C@H]1CCCC[C@H]1Nc1ncc2c(n1)N(C)C(=O)N(c1c(Cl)c(OCC)cc(OCC)c1Cl)C2 [Compound I-219] | 
 |  | C=CC(=O)Nc1ccccc1Nc1ncc2c(n1)N(C1CCN(CC)CC1)C(=O)N(c1cc(OC)cc(OC)c1)C2 [Compound I-80] | EC50 [2, 4]: > 1000 nM
 |  | C=CC(=O)Nc1cc(N2CCN(C(=O)CCCC(=O)NCCCOCCOCCOCCCNC(=O)CCCC[C@@H]3SC[C@@H]4NC(=O)N[C@@H]43)CC2)ccc1Nc1ncc2c(n1)N(C)C(=O)N(c1c(Cl)c(OC)cc(OC)c1Cl)C2 [Compound I-127] | EC50 [2, 4]: 101 to 500 nM
 |  | C=CC(=O)N[C@H]1CCCC[C@H]1Nc1ncc2c(n1)N(C)C(=O)N(c1c(Cl)c(OC)cc(OC)c1Cl)C2 [Compound I-95] | EC50 [2, 4]: 101 to 500 nM
 | < 100 | C=CC(=O)NC1COCC1Nc1ncc2c(n1)N(Cc1cnn(C)c1)C(=O)N(c1c(Cl)c(OC)cc(OC)c1Cl)C2 (stereo not shown) [Compound I-213] | 
 |  | C=CC(=O)NC1CCCCC1Nc1ncc2c(n1)N(C)C(=O)N(c1c(Cl)c(OC)cc(OC)c1Cl)C2 (racemic) [Compound I-19] | EC50 [2, 4]: 101 to 500 nM
 |  | C=CC(=O)Nc1ccccc1Nc1ncc2c(n1)N(C1CCNCC1)C(=O)N(c1cc(OC)cc(OC)c1)C2 [Compound I-81] | EC50 [2, 4]: > 1000 nM
 |  | C=CC(=O)N[C@H]1CCCC[C@H]1Nc1ncc2c(n1)N(Cc1cscn1)C(=O)N(c1c(Cl)c(OC)cc(OC)c1Cl)C2 [Compound I-114] | EC50 [2, 4]: 101 to 500 nM
 | 101 to 500 | C=CC(=O)NC1CS(=O)(=O)CC1Nc1ncc2c(n1)N(C)C(=O)N(c1c(Cl)c(OC)cc(OC)c1Cl)C2 (stereo not shown) [Compound I-200] | 
 | < 100 | C=CC(=O)NC1COCC1Nc1ncc2c(n1)N(C)C(=O)N(c1c(F)c(OC)cc(OC)c1Cl)C2 (stereo not shown) [Compound I-206] | 
 | > 1000 | C=CC(=O)N[C@H]1CCCC[C@H]1Nc1ncc2c(n1)N(C)C(=O)N(c1cc(OC)c(OC)c(OC)c1)C2 [Compound I-220] | 
 | < 100 | C=CC(=O)NC1COCC1Nc1ncc2c(n1)N(C)C(=O)N(c1c(F)c(OC)cc(OC)c1F)C2 (stereo not shown) [Compound I-198] | 
 | > 1000 | C=CC(=O)NC1COCC1Nc1ncc2c(n1)N(C)C(=O)N(c1ccc(OC)cc1)C2 (stereo not shown) [Compound I-209] | 

Structure (SMILES) | EC50 ([1]; MDA-MB-453 cells) [nM] | EC50 [2, 3] [nM] | further results
C=CC(=O)NC1CCCCC1Nc1ncc2c(n1)N(CCF)C(=O)N(c1cc(OC)cc(OC)c1Cl)C2 (racemic) [Compound I-111] |  | > 1000 | EC50 ([1]; MDA-MB-453, MDA-MB-453 cells): 501 to 999 nM
C=CC(=O)Nc1cc(C(F)(F)F)ccc1Nc1ncc2c(n1)N(Cc1ccccc1)C(=O)N(c1c(Cl)c(OC)cc(OC)c1Cl)C2 [Compound I-6] |  | 101 to 500 | 
C=CC(=O)N[C@H]1CCCC[C@H]1Nc1ncc2c(n1)N(C)C(=O)N(c1c(Cl)c(OC)c(OC)c(OC)c1Cl)C2 [Compound I-221] |  | > 1000 | 
C=CC(=O)NC1CCCCC1Nc1ncc2c(n1)N(CCF)C(=O)N(c1c(Cl)c(OC)cc(OC)c1Cl)C2 (racemic) [Compound I-106] |  | 101 to 500 | EC50 ([1]; MDA-MB-453, MDA-MB-453 cells): 101 to 500 nM
C=CC(=O)NC1COCC1Nc1ncc2c(n1)N(C)C(=O)N(c1cc(C(=O)Nc3cccc(C(C)(C)C#N)c3)ccc1Cl)C2 (stereo not shown) [Compound I-246] |  | 101 to 500 | 
C=CC(=O)N(C)C1COCC1Nc1ncc2c(n1)N(C)C(=O)N(c1c(Cl)c(OC)cc(OC)c1Cl)C2 (stereo not shown) [Compound I-218] |  | > 1000 | 
C=CC(=O)NC1COCC1Nc1ncc2c(n1)N(C)C(=O)N(c1c(Cl)c(OCC)cc(OCC)c1Cl)C2 (stereo not shown) [Compound I-205] |  | 101 to 500 | 
C=CC(=O)NC1COCC1Nc1ncc2c(n1)N(C)C(=O)N(c1c(Cl)c(OC)c(OC)c(OC)c1Cl)C2 (stereo not shown) [Compound I-208] |  | > 1000 | 
C=CC(=O)N[C@H]1CCCC[C@H]1Nc1ncc2c(n1)N(C)C(=O)N(c1c(F)c(OC)cc(OC)c1Br)C2 [Compound I-228] |  | 101 to 500 | 

From patent US10774052B2, “Heteroaryl compounds and uses thereof” (Celgene CAR LLC, priority 2013, dated 2020)
